Reference: PubChem BioAssay (NCI)
Where “and” joins values, the source holds several entries; their conditions need not be identical. Identical values can stand only once.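 Values below derive from 48-hour exposures of cells grown in 96-well plates, with endpoints linearly interpolated between the two concentrations bracketing the appropriate inhibition level. Abbreviation: GI50, concentration required for 50% inhibition of growth. TGI is the concentration that stops growth completely.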

Tests used:
Assay in all cases: inhibition of tumour cell growth, NCI panel, 48 h
SNB-19 CNS = test system: SNB-19 CNS
LOX IMVI melanoma = test system: LOX IMVI melanoma
SNB-75 CNS = test system: SNB-75 CNS
UACC-62 melanoma = test system: UACC-62 melanoma
K-562 leukemia = test system: K-562 leukemia
RXF 393 renal = test system: RXF 393 renal
CCRF-CEM leukemia = test system: CCRF-CEM leukemia
UACC-257 melanoma = test system: UACC-257 melanoma
NCI-H226 lung = test system: NCI-H226 lung
COLO 205 colon = test system: COLO 205 colon

| SMILES | GI50 (SNB-19 CNS) [µM] | TGI (SNB-19 CNS) [µM] | GI50 (LOX IMVI melanoma) [µM] | TGI (LOX IMVI melanoma) | GI50 (SNB-75 CNS) [µM] | TGI (SNB-75 CNS) | GI50 (UACC-62 melanoma) [µM] | TGI (UACC-62 melanoma) | GI50 (K-562 leukemia) [µM] | TGI (K-562 leukemia) | GI50 (RXF 393 renal) [µM] | TGI (RXF 393 renal) | GI50 (CCRF-CEM leukemia) [µM] | TGI (CCRF-CEM leukemia) [µM] | GI50 (UACC-257 melanoma) [µM] | TGI (UACC-257 melanoma) | GI50 (NCI-H226 lung) [µM] | TGI (NCI-H226 lung) [µM] | GI50 (COLO 205 colon) [µM] | TGI (COLO 205 colon) [µM] |
| --- | --- | --- | --- | --- | --- | --- | --- | --- | --- | --- | --- | --- | --- | --- | --- | --- | --- | --- | --- | --- |
| CCc1ccccc1NC(=O)c1sc2nc3c(cc2c1N)C(=O)CCC3 | 0.801 | > 100 | 0.669 | > 100 µM | 0.346 | 55.1 µM | 0.439 | > 100 µM | 0.275 | > 100 µM | 0.191 | 0.852 µM | 0.352 | > 100 | 27.6 | > 100 µM | 23.2 | > 100 | 0.291 | 1.06 |
| [Au+].[Au+].[Au+].[c-]1nccn1Cc1ccccc1.[c-]1nccn1Cc1ccccc1.[c-]1nccn1Cc1ccccc1 | 23.1 | 59 | 1.56 | 3.08 µM | 6.08 | 18.9 µM | 5.23 | 21.4 µM | 3.82 | 25 µM | 2.03 | 5.8 µM | 3.71 | > 25.5 | 3.71 | 7.5 µM | 14.6 | 71.4 | 1.74 | 3.16 |
| O=C(Nc1ccc(CO)cc1)c1coc2ccccc2c1=O | > 100 | > 100 | > 100 | > 100 µM | > 100 | > 100 µM | > 100 | > 100 µM | > 100 | > 100 µM | > 100 | > 100 µM | > 100 | > 100 | > 100 | > 100 µM | > 100 | > 100 | > 100 | > 100 |
| O=C(Nc1ccc(-c2ccccc2)cc1)C1CCN(S(=O)(=O)c2ccccc2Cl)CC1 | > 100 | > 100 | 27.7 | > 100 µM | 36.5 | > 100 µM | 39.8 | > 100 µM | 71.8 | > 100 µM | 2.09 | 5 µM | 74.2 | > 100 | 28.1 | > 100 µM | 30.2 | > 100 | > 100 | > 100 |
| COc1ccc(OC)c2c(/C=C/c3ccc(N(C)C)cc3)ccnc12 |  | > 10 |  | > 10 µM |  | > 10 µM |  | > 10 µM |  | > 10 µM |  | > 10 µM |  | 9.28 |  | > 10 µM |  | > 10 |  | > 10 |
| C[n+]1cc(C(O)c2ccc3c(c2)OCO3)c2ccccc2c1 (stereo not given) |  | > 100 |  | > 100 µM |  | > 100 µM |  | > 100 µM |  | > 100 µM |  | 62.5 µM |  | > 100 |  | 66.5 µM |  | > 100 |  | > 100 |
| Cc1cc(C)c(C2[C@H]3C(=O)N(c4ccc(Cc5ccc(N6C(=O)[C@@H]7ON(c8ccccc8)C(c8c(C)cc(C)cc8C)[C@@H]7C6=O)cc5)cc4)C(=O)[C@H]3ON2c2ccccc2)c(C)c1 (stereo not given in full) |  | > 100 |  | > 100 µM |  | > 100 µM |  | > 100 µM |  | > 100 µM |  | > 100 µM |  | > 100 |  | > 100 µM |  | > 100 |  | > 100 |
| C[C@@]12CCCc3coc(c31)C(=O)c1cc3c(cc12)C(=O)C=CC3=O | > 1 | > 100 | > 1 | > 1 µM and 35.1 µM | > 1 | > 1 µM and 38.2 µM | > 1 | > 1 µM and 32.1 µM | > 1 | > 1 µM and 78.2 µM | > 1 | > 1 µM and 29.1 µM |  | 7.74 | > 1 | > 1 µM and 29.9 µM |  | > 1 |  | > 1 |
| CCOC(=O)c1c[nH]c2oc(/C=N/N3CC(CN4CCOCC4)OC3=O)cc2c1=O (stereo not given) |  | > 100 |  | > 100 µM |  | > 100 µM |  | > 100 µM |  | > 100 µM |  | > 100 µM |  | > 100 |  | > 100 µM |  | > 100 |  | > 100 |
| O=C1c2ccc3c4ccccc4n(Cc4ccccc4)c3c2C(=O)N1c1ccccc1 |  | 42.3 |  | 31.4 µM |  | 27.7 µM |  | 31.7 µM |  | 34.2 µM |  | 26.7 µM |  | 3.68 |  | 29.9 µM |  | 29.7 |  | 11.1 |
| Oc1cn(-c2ccc(Cl)cc2)nc1-c1n[nH]c(=S)n1C1CCCCC1 | 0.416 | > 44.8 | 0.451 | > 100 µM | 0.165 | 0.702 µM |  | > 100 µM | < 0.0427 |  | > 24.6 | > 100 µM | 0.252 | > 100 | 0.873 | > 100 µM | 59.8 | > 100 | 64.8 | > 100 |
| O=C1[C@H]2ON(c3ccccc3)C(c3ccc(Cl)cc3)[C@H]2C(=O)N1c1ccc(Cc2ccc(N3C(=O)[C@@H]4ON(c5ccccc5)C(c5ccc(Cl)cc5)[C@@H]4C3=O)cc2)cc1 (stereo not given in full) |  | > 100 |  | > 100 µM |  | > 100 µM |  | > 100 µM |  | > 100 µM |  | > 100 µM |  | > 100 |  | > 100 µM |  | > 100 |  | > 100 |
| COc1ccc2[nH]c3c4c(ccc3c2c1)C(=O)C=CC4=O |  | > 79.1 |  | 24.1 µM |  | 41.3 µM |  | 36 µM |  | 3.97 µM |  | 6.88 µM |  | 6.55 |  | 27.7 µM |  | 49.9 |  | 15.6 |
| COC(=O)CCC(=O)CC1CC(=O)C2CCCN12 (stereo not given) |  | > 100 |  | > 100 µM |  | > 100 µM |  | > 100 µM |  | > 100 µM |  | > 100 µM |  | > 100 |  | > 100 µM |  | > 100 |  | > 100 |
| O=C(Nc1ccc(-n2cc(-c3ccncc3)c(-c3ccc(Cl)c(O)c3)n2)cc1)Nc1ccc(Cl)c(C(F)(F)F)c1 | 1.72 | 4.7 | 1.44 | 2.75 µM | 0.363 | 2.14 µM | 1.7 | 3.44 µM | 1.89 | 7.37 µM | 0.755 | 2.31 µM | 1.53 | 8.79 | 1.51 | 3.4 µM | 2.76 | 10.8 | 1.68 | 3.7 |
| COc1ccc(C2c3cc(OC)c(OC)cc3C(Cc3ccc([N+](=O)[O-])cc3)C2c2ccc([N+](=O)[O-])cc2)cc1OC (stereo not given) |  | > 100 |  | > 100 µM |  | > 100 µM |  | > 100 µM |  | > 100 µM |  | > 100 µM |  | > 100 |  | > 100 µM |  | > 100 |  | > 100 |
